Measurements taken from ChEMBL document CHEMBL5120864, “Targeting Enhancer of Zeste Homolog 2 for the Treatment of Hematological Malignancies and Solid Tumors: Candidate Structure-Activity Relationships Insights and Evolution Prospects” (J Med Chem, 2022).

Tests used:
[1] = tested on: WSUDLCL2; assay: cells; format: functional, cell-based; conditions: Homo sapiens
[2] = molecular target: Histone-lysine N-methyltransferase EZH2 (Homo sapiens, UniProt Q15910, Y641F)
[3] = tested on: Pfeiffer; assay: cells; format: functional, cell-based; conditions: Homo sapiens
[4] = tested on: SU-DHL-6; assay: cells; format: functional, cell-based; conditions: Homo sapiens
[5] = molecular target: T1, Histone-lysine N-methyltransferase EZH2 (Homo sapiens, UniProt Q15910)
T1 sequence (Q15910 whole entry): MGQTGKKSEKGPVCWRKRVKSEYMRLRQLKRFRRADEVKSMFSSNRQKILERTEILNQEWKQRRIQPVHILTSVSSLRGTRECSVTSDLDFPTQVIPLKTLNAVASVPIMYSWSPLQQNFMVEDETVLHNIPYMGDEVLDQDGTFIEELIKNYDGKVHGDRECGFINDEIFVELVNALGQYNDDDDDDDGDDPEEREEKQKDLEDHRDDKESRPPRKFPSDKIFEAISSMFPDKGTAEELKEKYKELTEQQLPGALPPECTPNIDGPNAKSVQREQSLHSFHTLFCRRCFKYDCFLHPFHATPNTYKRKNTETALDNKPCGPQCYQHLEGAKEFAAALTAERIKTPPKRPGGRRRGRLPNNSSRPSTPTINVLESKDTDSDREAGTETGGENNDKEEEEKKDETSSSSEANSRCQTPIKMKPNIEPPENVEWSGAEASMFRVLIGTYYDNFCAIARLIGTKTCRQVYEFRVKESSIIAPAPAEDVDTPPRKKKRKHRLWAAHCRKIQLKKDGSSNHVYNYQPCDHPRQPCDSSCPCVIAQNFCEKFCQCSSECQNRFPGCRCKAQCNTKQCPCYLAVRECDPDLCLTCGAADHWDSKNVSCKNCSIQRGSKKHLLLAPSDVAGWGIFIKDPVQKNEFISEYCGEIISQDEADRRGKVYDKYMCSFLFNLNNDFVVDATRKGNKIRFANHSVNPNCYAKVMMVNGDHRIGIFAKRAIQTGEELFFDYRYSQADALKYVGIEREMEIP

[6] = molecular target: T1, Histone-lysine N-methyltransferase EZH2; remark: listed apart in the source
[7] = molecular target: Histone-lysine N-methyltransferase EZH2 (Homo sapiens, UniProt Q15910, Y641N)
Chain of Histone-lysine N-methyltransferase EZH2 (Homo sapiens, UniProt Q15910, Y641N) (Q15910 whole entry Y641N): as the sequence (Q15910 whole entry) above, with Y641N counted along it

[8] = tested on: HeLa; assay: cells; format: functional, cell-based; conditions: Homo sapiens
[9] = tested on: KARPAS-422; assay: cells; format: functional; conditions: Homo sapiens
[10] = molecular target: T2, Protein cereblon/Histone-lysine N-methyltransferase EZH2 (Homo sapiens, UniProt Q15910+Q96SW2); format: cell-based, DOHH-2
T2 sequence (Q15910 whole entry): as the sequence (Q15910 whole entry) above
T2 sequence (Q96SW2 whole entry): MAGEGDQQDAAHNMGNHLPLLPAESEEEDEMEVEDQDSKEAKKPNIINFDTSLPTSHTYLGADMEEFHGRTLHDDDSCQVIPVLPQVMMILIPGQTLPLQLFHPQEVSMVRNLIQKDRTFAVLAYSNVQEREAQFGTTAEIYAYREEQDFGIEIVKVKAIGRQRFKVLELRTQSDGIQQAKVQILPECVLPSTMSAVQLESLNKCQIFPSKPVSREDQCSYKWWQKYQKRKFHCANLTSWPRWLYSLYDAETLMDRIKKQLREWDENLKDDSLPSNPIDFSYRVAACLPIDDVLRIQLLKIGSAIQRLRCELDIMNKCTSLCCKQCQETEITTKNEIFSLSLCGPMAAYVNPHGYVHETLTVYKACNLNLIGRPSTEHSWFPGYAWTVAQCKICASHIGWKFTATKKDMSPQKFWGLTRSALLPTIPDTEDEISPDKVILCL

[11] = molecular target: T2, Protein cereblon/Histone-lysine N-methyltransferase EZH2; format: cell-based, OCILY7
[12] = tested on: Pfeiffer; assay: cells; format: functional, cell-based; conditions: Homo sapiens; remark: listed apart in the source
[13] = tested on: SU-DHL-6; assay: cells; format: functional, cell-based; conditions: Homo sapiens; remark: listed apart in the source
[14] = molecular target: T1, Histone-lysine N-methyltransferase EZH2; remark: listed apart in the source
[15] = tested on: MCF7; assay: cells; format: functional, cell-based; conditions: Homo sapiens, MCF7, 24 h
[16] = tested on: HepG2; assay: cells; format: functional, cell-based; conditions: Homo sapiens, HepG2, 24 h
[17] = tested on: PC-3; assay: cells; format: functional, cell-based; conditions: Homo sapiens, PC-3, 24 h

Chain of Histone-lysine N-methyltransferase EZH2 (Homo sapiens, UniProt Q15910, Y641F) (Q15910 whole entry Y641F): as the sequence (Q15910 whole entry) above, with Y641F counted along it

For `CCN(c1cc(C#CCN2CCOCC2)cc(C(=O)NCc2c(C)cc(C)[nH]c2=O)c1C)[C@H]1CC[C@H](N(C)CCOC)CC1`, the IC50 [1] was 385 nM.
In the case of `CCN(c1cc(C#CC2CCN(C)CC2)cc(C(=O)NCc2c(C)cc(C)[nH]c2=O)c1C)C1CCOCC1`, the IC50 [2] is reported as 8.4 nM.
Compound `CCN(c1cc(-c2ccc(CN3CCN(C)CC3)cc2)cc(C(=O)NCc2c3c(c(C)[nH]c2=O)CCCC3)c1C)C1CCOCC1` has an IC50 [3] of 12.5 nM and an IC50 [4] of 16000 nM.
For `COc1cc(C)[nH]c(=O)c1CNC(=O)c1c(C)n([C@H](C)C2CCN(CC(C)(F)F)CC2)c2ccccc12`, the IC50 [2] was under 1 nM and the IC50 [5] was under 1 nM.
For `CCN(c1cc(Br)cc(C(=O)NCc2c[nH]c(C)cc2=O)c1C)[C@H]1CC[C@H](N(C)C)CC1`, the IC50 [6] was 40 nM.
`CCN(c1cc(-c2ccc(CN3CCOCC3)cc2)cc(C(=O)NCc2c(Cl)cc(C)c[n+]2[O-])c1C)C1CCOCC1` gave an IC50 [6] of under 100 nM.
With `C=CCC1(S(=O)(=O)N2CC(C)c3c(C(=O)NCc4c(C)cc(C)[nH]c4=O)cc(-c4ccc(N5CCN(C)CC5)nc4)cc32)CC1` (stereo unspecified) the IC50 [2] was 1530 nM and the IC50 [7] was 1530 nM.
`CSc1cc(C)[nH]c(=O)c1CN1CCc2c(Cl)c3c(c(C)c2C1=O)O[C@@](C)([C@H]1CC[C@H](N(C)C)CC1)O3` gave an EC50 [8] of 0.849 nM and a GI50 [9] of 5.7 nM.
Work on `C=CC(=O)Nc1nn(C(C)c2ccccc2)c(C)c1C(=O)NCc1c(C)cc(C)[nH]c1=O` (stereo unspecified) yielded an IC50 [6] of 64 nM.
Work on `C=CCC1(S(=O)(=O)N2CCc3c(C(=O)NCc4c(C)cc(C)[nH]c4=O)cc(-c4ccc(N5CCN(C)CC5)nc4)cc32)CC1` yielded an IC50 [2] of 2590 nM and an IC50 [7] of 2590 nM.
Compound `CCCc1cc(C)[nH]c(=O)c1CNC(=O)c1cc(-c2ccc(N3CCNCC3)cc2)cc2c1ccc(=O)n2C(CC)CC` has an IC50 [2] of 9 nM and an IC50 [5] of 11 nM.
In the case of `C=CCC1(S(=O)(=O)n2cc(C)c3c(C(=O)NCc4c(OC)cc(C)[nH]c4=O)cc(-c4ccc(N5CCN(C)CC5)nc4)cc32)CC1`, the IC50 [2] is reported as 5 nM and the IC50 [7] is reported as 27000 nM.
Work on `CCN(c1cc(-c2ccc(CN3CCN(C(=O)CCCCCNc4cccc5c4C(=O)N(C4CCC(=O)NC4=O)C5=O)CC3)cc2)cc(C(=O)NCc2c(C)cc(C)[nH]c2=O)c1C)C1CCOCC1` (stereo unspecified) yielded an IC50 [10] of 100 nM and an IC50 [11] of 100 nM.
For `CCN(c1cc(-c2ccc(CN3CCOCC3)cc2)cc(C(=O)NCc2c3c(c(C)[nH]c2=O)CCCCCC3)c1C)C1CCOCC1`, the IC50 [12] was 21000 nM and the IC50 [13] was over 30000 nM.
With `CCc1c(C(=O)NCc2c(C)cc(C)[nH]c2=O)cc2c(cnn2C)c1N(CC)[C@H]1CC[C@H](N2CC(OC)C2)CC1` the IC50 [12] was 76 nM.
Work on `CSc1cc(C)[nH]c(=O)c1CNC(=O)c1cc(Cl)c2c(c1C)O[C@@](C)([C@H]1CC[C@H](N(C)C)CC1)O2` yielded an EC50 [8] of 0.51 nM and a GI50 [9] of 4 nM.
For `CCN(c1cc(-c2ccc(CN3CCN(C(=O)CCCCCCCNc4cccc5c4C(=O)N(C4CCC(=O)NC4=O)C5=O)CC3)cc2)cc(C(=O)NCc2c(C)cc(C)[nH]c2=O)c1C)C1CCOCC1` (stereo unspecified), the IC50 [10] was 100 nM and the IC50 [11] was 60 nM.
`Cc1cc(C)c(CNC(=O)c2cnn(C(C)C)c2C)c(=O)[nH]1` was tested, and the IC50 [14] was 343000 nM.
Compound `CCC(C)n1cc(C)c2c(C(=O)NCC3=C(O)NN(CC)C3C)cc(-c3ccc(N4CCNCC4)nc3)cc21` (stereo unspecified) has an IC50 [2] of 1470 nM and an IC50 [5] of 230 nM.
`CCN(c1cc(-c2ccc(CN3CCOCC3)cc2)cc(C(=O)NCc2c3c(c(C)[nH]c2=O)CCCC3)c1C)C1CCOCC1` showed an IC50 [12] of 19500 nM and an IC50 [13] of 20000 nM.
Work on `CCN(c1cc(-c2ccc(CN3CCOCC3)cc2)cc(C(=O)NCc2c3c(c(C)[nH]c2=O)CCCCC3)c1C)C1CCOCC1` yielded an IC50 [12] of 27000 nM and an IC50 [13] of over 30000 nM.
In the case of `Cc1cc(C)c(CN2CCc3c(Br)c4c(c(C)c3C2=O)OC(C)([C@H]2CC[C@H](N(C)C)CC2)O4)c(=O)[nH]1` (stereo partly specified), the GI50 [12] is reported as 0.21 nM and the GI50 [9] is reported as 1.2 nM.
`COc1ccc(C2SCCC(=O)N2Nc2nc3cc(Cl)c(Cl)cc3[nH]2)cc1` (stereo unspecified) showed an IC50 [15] of 76800 nM, an IC50 [16] of 68600 nM and an IC50 [17] of 71800 nM.
`Cc1cc(C)c(CNC(=O)c2cc(-c3ccc(N4CCN(CCOCCC(=O)Nc5cccc6c5C(=O)N(C5CCC(=O)NC5=O)C6=O)CC4)nc3)c3c(cnn3C(C)C)c2)c(=O)[nH]1` (stereo unspecified) showed an IC50 [6] of 7 nM.
For `CC1=CCOc2c(Br)cc(C(=O)NCc3c(C)cc(C)[nH]c3=O)cc2C1`, the IC50 [6] was over 1000 nM.
In the case of `CCCc1cc(C)[nH]c(=O)c1CNC(=O)c1cc(-c2ccc(N3CCOCC3)nc2)c2ccn(C(C)C)c2c1C`, the IC50 [6] is reported as 0.01 nM.
Work on `Cc1cc(C)c(CNC(=O)c2cc3c(c(-c4ccc(N5CCNCC5)cc4)c2)OC(C)(C)C3)c(=O)[nH]1` yielded an IC50 [6] of under 500 nM.
Compound `CCCc1cc(C)[nH]c(=O)c1CNC(=O)c1cc(-c2ccc(N3CCNCC3)nc2)cc2c([C@H](C)CC)ncn12` has an IC50 [2] of 8.13 nM and an IC50 [5] of 76.1 nM.
